Source: ChEMBL document CHEMBL4196096, “Reviewing Hit Discovery Literature for Difficult Targets: Glutathione Transferase Omega-1 as an Example” (J Med Chem, 2018)
Each block holds one compound with its values, some of them ahead of it.

Tests used:
[1] = target: T1, Glutathione S-transferase omega-1 (Homo sapiens, UniProt P78417); test: Inhibition of human GSTO1-1 by MMA (V) reductase assay
T1 sequence (P78417 whole entry): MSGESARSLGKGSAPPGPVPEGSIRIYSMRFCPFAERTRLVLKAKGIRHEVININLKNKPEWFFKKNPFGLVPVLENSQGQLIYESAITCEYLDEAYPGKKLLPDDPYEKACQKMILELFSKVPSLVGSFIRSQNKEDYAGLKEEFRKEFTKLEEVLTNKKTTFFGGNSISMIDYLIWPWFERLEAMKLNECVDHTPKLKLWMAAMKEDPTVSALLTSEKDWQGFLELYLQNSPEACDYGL

[2] = target: T1, Glutathione S-transferase omega-1; test: Inhibition of GSTO1-1 (unknown origin) by enzymatic assay
[3] = target: Glutathione S-transferase omega-1 (Homo sapiens) (UniProt P78417); test: Inhibition of human GSTO1-1 expressed in HEK293 cells by CDNB-GSH conjugation assay
[4] = target: Glutathione S-transferase P (Homo sapiens, UniProt P09211); test: Inhibition of human GSTP1-1
Sequence of Glutathione S-transferase P (P09211 whole entry): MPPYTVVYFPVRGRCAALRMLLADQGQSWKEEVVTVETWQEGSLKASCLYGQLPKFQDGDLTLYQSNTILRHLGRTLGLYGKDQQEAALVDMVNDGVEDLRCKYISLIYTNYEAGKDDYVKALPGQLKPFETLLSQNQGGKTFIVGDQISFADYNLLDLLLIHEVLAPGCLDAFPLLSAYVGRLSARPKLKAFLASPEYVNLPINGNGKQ

[5] = target: T1, Glutathione S-transferase omega-1; test: Inhibition of GSTO1-1 (unknown origin) pre-incubated for 1 hr before GSH addition by CDNB-GSH conjugation assay
[6] = target: T1, Glutathione S-transferase omega-1; test: Inhibition of GSTO1-1 (unknown origin) by 4-NPG substrate based assay

IC50 [3]: 0.0512 µM
SMILES: CC(=O)Oc1ccc2c(c1)Oc1cc(OC(C)=O)ccc1C21OC(=O)c2cc(CCl)ccc21

IC50 [1]: 4 µM
SMILES: Cc1c(C)c2c(c(C)c1OC(=O)CCC(=O)O)CC[C@@](C)(CCC[C@H](C)CCC[C@H](C)CCCC(C)C)O2 [(+)-ALPHA-TOCOPHERYL SUCCINATE]

IC50 [4]: 0.5 µM
SMILES: Cc1c(C)c2c(c(C)c1O)CC[C@@](C)(CCC[C@H](C)CCC[C@H](C)CCCC(C)C)O2 [ALPHA-TOCOPHEROL]

IC50 [5]: 0.15 µM
SMILES: CC(C)C[C@H](NC(=O)[C@H](CCc1ccccc1)NC(=O)CN1CCOCC1)C(=O)N[C@@H](Cc1ccccc1)C(=O)N[C@@H](CC(C)C)C(=O)[C@@]1(C)CO1 [CARFILZOMIB]

IC50 [1]: 25 µM
SMILES: C=C(CC)C(=O)c1ccc(OCC(=O)O)c(Cl)c1Cl [ETHACRYNIC ACID]

IC50 [6]: 1.6 µM
SMILES: O=C1C=CC(O)(c2cc(=O)c3c(O)cc(O)cc3o2)C=C1 [PROTOAPIGENONE]

Further lines, the compound ahead of its results:

SMILES: C[C@H](CCC(=O)O)[C@H]1CC[C@H]2[C@@H]3CC[C@@H]4C[C@H](O)CC[C@]4(C)[C@H]3C[C@H](O)[C@]12C
IC50 [1]: 1020 µM

SMILES: CCN(CC)C(=O)SSC(=O)N(CC)CC
IC50 [2]: < 0.4 µM

SMILES: CC(C)c1cc2c(c(O)c1O)[C@@]1(C(=O)O)CCCC(C)(C)[C@@H]1CC2 [CARNOSIC ACID]
IC50 [6]: 62 µM

SMILES: O=[N+]([O-])c1ccc(Cl)c([N+](=O)[O-])c1 [DINITROCHLOROBENZENE]
IC50 [1]: 900 µM
